In brackets after ≈: the same amount, converted by molar mass. Several values for one entry are separate records, joined by “and”; a condition that tells them apart may be missing. Identical values can stand only once. Like-named read-outs stand apart in the source and are kept apart here.
How the values were obtained:
[1] = test system: M. tuberculosis H37Rv CNCTC My 331/88; experiment: In vitro antimycobacterial microdilution panel method; assay type: cell-based; details: Mycobacterium tuberculosis, 336 h
[2] = test system: M. avium CNCTC My 80/72; experiment: as above; assay type: cell-based; details: Mycobacterium avium, 336 h; CNCTC My 80/72, pH 6.0, 14 days
[3] = test system: M. avium CNCTC My 152/73; experiment: as above; assay type: cell-based; details: Mycobacterium avium, 336 h; CNCTC My 152/73, pH 6.0, 14 days
[4] = test system: M. kansasii CNCTC My 235/80; experiment: as above; assay type: cell-based; details: Mycobacterium kansasii, 144 h; CNCTC My 235/80, pH 6.0, 6 days
[5] = test system: Trichophyton mentagrophytes 445; experiment: In vitro antifungal microdilution broth method; assay type: cell-based; details: RPMI 1640 pH 7.0, 35 °C; for MIC: read-out: TM MIC
Protocol: The Department of Medical and Biological Sciences at the Faculty of Pharmacy in Hradec Králové, Charles University in Prague, Czech Republic, performed the antifungal susceptibility assays, which was carried out using microdilution broth method. Compounds were dissolved in DMSO and diluted in a twofold manner with RPMI 1640 medium with glutamine buffered to pH 7.0 (3-morpholinopropane-1-sulfonic acid). […] Drug-free controls were included. […] The MICs were determined after 24 and 48 h, respectively after 72 and 120 h for Trichophyton mentagrophytes (TM), of static incubation in dark at 35 °C. Tested species: […]

[6] = HPLC lipophilicity determination (capacity factor k / log k); details: RP-HPLC, C18, MeOH 70%/H2O 30%, 30 °C
Protocol: The separation process was controlled by Agilent ChemStation, version B.04.02 extended by spectral module (Agilent Technologies Inc.). A solution of MeOH (HPLC grade, 70%) with H2O (HPLC-Milli-Q Grade, 30%) was used as mobile phase. The total flow of the column was 1.0 mL/min, injection 20 µL, column temperature 30 °C. 210 nm as detection wavelength and 270 nm as monitor wavelength were chosen. The KI methanol solution was used for the dead time (TD) determination. Retention times (TR) of synthesized compounds were measured in minutes. The capacity factors k were calculated using Microsoft Excel according to formula k = (TR − TD)/TD, where TR is the retention time of the solute and TD denotes the dead time obtained via an unretained analyte. Log k, calculated from the capacity factor k, is used as the lipophilicity index converted to log P scale.

[7] = test system: photosynthetic electron transport (PET) in spinach chloroplasts; design: method as in earlier work; details: standard, read-out: IC50 (PET inhibition); cited from earlier work
[8] = test system: photosynthetic electron transport (PET) in spinach chloroplasts; experiment: Inhibition of photosynthetic electron transport (oxygen evolution rate) in spinach chloroplasts; assay type: biochemical, Spinacia oleracea L.; details: DCPIP photoreduction, pH 7.2
Protocol: All studied compounds were evaluated for their photosynthetic electron transport (PET) inhibition in spinach chloroplasts, which was reflected in the inhibition of oxygen evolution rate. The photosynthesis-inhibiting activity of the compounds has been expressed as IC50 values. Compounds 4, 5, 7 and 8 were not tested due to their low solubility in tested medium.
Chloroplasts were prepared from spinach (Spinacia oleracea L.) according to Masarovičová and Kráľová [31]. The inhibition of photosynthetic electron transport (PET) in spinach chloroplasts was determined spectrophotometrically (Genesys 6, Thermo Scientific, Madison, WI, USA) using an artificial electron acceptor 2,6-dichlorophenol-indophenol (DCPIP) according to Kráľová et al. and the rate of photosynthetic electron transport (PET) was monitored as a photo-reduction of DCPIP. The measurements were carried out in a phosphate buffer (0.02 mol/L, pH 7.2) containing sucrose (0.4 mol/L), MgCl2 (0.005 mol/L) and NaCl (0.015 mol/L). The chlorophyll content was 30 mg/L in these experiments and the samples were irradiated (~100 W/m^2) from a 10 cm distance with halogen lamp (250 W) using a 4 cm water filter to prevent warming of the samples (suspension temperature 22 °C). The studied compounds were dissolved in DMSO due to their limited water solubility. […] The inhibitory efficiency of the studied compounds was expressed as the IC50 values, i.e., molar concentration of the compounds causing 50% decrease in the oxygen evolution relative to the untreated control.

[9] = test system: aromatic amino acids in the proteins of spinach chloroplasts situated in PS 2; experiment: Fluorescence of aromatic amino acids in spinach chloroplasts; assay type: biochemical, Spinacia oleracea L.; details: λex = 275 nm, 0-0.11 mmol/L
From the text: Figure 4 presents fluorescence emission spectra of aromatic amino acids of untreated spinach chloroplasts and of chloroplasts treated with increasing concentrations of compound 6 (see Figure 4A) as well as dependence of fluorescence intensity of chlorophyll a on concentration of compounds 2 (squares), 11 (triangles) and 6 (circles) (see Figure 4B). Binding of these compounds to aromatic amino acids occurring in photosynthetic proteins contribute to PET inhibition. The fluorescence emission spectra of chlorophyll a (Chla) and aromatic amino acids in spinach chloroplasts were recorded on fluorescence spectrophotometer F-2000 (Hitachi, Tokyo, Japan) using excitation wavelength λex = 436 nm for monitoring fluorescence of Chla and λex = 275 nm for monitoring fluorescence of aromatic amino acids, excitation slit 20 nm and emission slit 10 nm. The samples were kept in the dark 2 min before measuring. The phosphate buffer used for dilution of the chloroplast suspension was the same as described above. Due to low aqueous solubility the compounds were added to a chloroplast suspension in DMSO solution. The DMSO concentration in all samples was the same as in the control (10%). The chlorophyll concentration in chloroplast suspension was 10 mg/L.

[10] = test system: pigment-protein complexes in photosystem 2; experiment: Fluorescence of chlorophyll a in spinach chloroplasts; assay type: biochemical, Spinacia oleracea L.; details: λex = 436 nm, 0-0.42 mmol/L
From the text: The effects of the studied compounds on the photosynthetic apparatus of spinach chloroplasts were investigated by studying chlorophyll a (Chla) fluorescence. […] The extent of perturbation of chlorophyll a-protein complexes in the thylakoid membrane was reflected as decreased fluorescence of the pigment (see Figure 3B). Similar decrease of Chla fluorescence in plant chloroplasts was also observed previously after treatment with substituted benzanilides and salicyanilides. The fluorescence emission spectra of chlorophyll a (Chla) and aromatic amino acids in spinach chloroplasts were recorded on fluorescence spectrophotometer F-2000 (Hitachi, Tokyo, Japan) using excitation wavelength λex = 436 nm for monitoring fluorescence of Chla and λex = 275 nm for monitoring fluorescence of aromatic amino acids, excitation slit 20 nm and emission slit 10 nm. The samples were kept in the dark 2 min before measuring. The phosphate buffer used for dilution of the chloroplast suspension was the same as described above. Due to low aqueous solubility the compounds were added to a chloroplast suspension in DMSO solution. The DMSO concentration in all samples was the same as in the control (10%). The chlorophyll concentration in chloroplast suspension was 10 mg/L.

[11] = MIC with respect to molecular weight, Šula's medium pH 6.0, 14 days, read-out: MIC M. tuberculosis H37Rv (value in parentheses)
[12] = Šula's medium pH 6.0, 37 °C, 14 days, read-out: MIC M. tuberculosis H37Rv
[13] = Trichophyton mentagrophytes, 445, 72 h, pH 7, evaluated after 72 h
[14] = Trichophyton mentagrophytes, 445, 120 h, pH 7, evaluated after 120 h

Row | Structure (SMILES) | MIC [1, 11] [µM] | MIC [1, 12] [µg/mL] | MIC [2] [µg/mL] | MIC [3] [µg/mL] | MIC [4] [µg/mL] | MIC [5, 13] [µM] | MIC [5, 14] [µM] | log k [6] | IC50 [7] | IC50 [8] [µM] | fluorescence of aromatic amino acids [9] | TM MIC ([5]; evaluated after 72 h) | chlorophyll a fluorescence emission [10]
1 | O=C(NCc1ccc(Cl)cc1)c1cncc(Cl)n1 [Compound 7, 6-Chloro-N-(4-chlorobenzyl)pyrazine-2-carboxamide] | 44 | 12.5 | 100 (≈ 354 µM) | 12.5 (≈ 44.3 µM) | 100 (≈ 354 µM) | 125 (≈ 35.3 µg/mL) | 125 (≈ 35.3 µg/mL) | 0.4335 |  |  |  |  | 
2 | CN(C)C(=O)Nc1ccc(Cl)c(Cl)c1 [DCMU, 3-(3,4-dichlorophenyl)-1,1-dimethylurea] |  |  |  |  |  |  |  |  | ~1.9 µM and 1.9 µM |  |  |  | 
3 | CC(C)(C)c1ncc(C(=O)NCc2ccc(Cl)cc2)nc1Cl [Compound 11, 5-tert-Butyl-6-chloro-N-(4-chlorobenzyl)pyrazine-2-carboxamide] | 36 | 12.5 | 50 (≈ 148 µM) | 50 (≈ 148 µM) | 50 (≈ 148 µM) | 250 (≈ 84.6 µg/mL) | 500 (≈ 169 µg/mL) | 1.3511 |  | 13.4 |  |  | 
4 | O=C(NCc1ccccc1)c1cncc(Cl)n1 [Compound 5, N-Benzyl-6-chloropyrazine-2-carboxamide] | 50 | 12.5 | 100 (≈ 404 µM) | 100 (≈ 404 µM) | 50 (≈ 202 µM) | 250 (≈ 61.9 µg/mL) | 500 (≈ 124 µg/mL) | 0.2002 |  |  |  |  | 
5 | COc1ccc(CNC(=O)c2cnc(C(C)(C)C)c(Cl)n2)cc1 [Compound 12, 5-tert-Butyl-6-chloro-N-(4-methoxybenzyl)pyrazine-2-carboxamide] | 18 | 6.25 | 12.5 (≈ 37.4 µM) | 6.25 (≈ 18.7 µM) | 3.12 (≈ 9.36 µM) | 250 (≈ 83.5 µg/mL) | 500 (≈ 167 µg/mL) | 0.8071 |  | 122 |  |  | 
6 | COc1ccc(CNC(=O)c2cnc(Cl)cn2)cc1 [Compound 4, 5-Chloro-N-(4-methoxybenzyl)pyrazine-2-carboxamide] | 90 | 25 | 100 (≈ 360 µM) | 50 (≈ 180 µM) | 100 (≈ 360 µM) | 250 (≈ 69.4 µg/mL) | 250 (≈ 69.4 µg/mL) | 0.1655 |  |  |  |  | 
7 | O=C(NCc1cccc(C(F)(F)F)c1)c1cncc(Cl)n1 [Compound 6, 6-Chloro-N-(3-trifluoromethylbenzyl)pyrazine-2-carboxamide] | 39 | 12.5 | 25 (≈ 79.2 µM) | 100 (≈ 317 µM) | 100 (≈ 317 µM) | 62.5 (≈ 19.7 µg/mL) | 125 (≈ 39.5 µg/mL) | 0.4507 |  | 1210 | quenching of their fluorescence at 334 nm |  | 
8 | O=C(NCc1ccccc1)c1cnc(Cl)cn1 [Compound 1, N-Benzyl-5-chloropyrazine-2-carboxamide] | 100 | 25 | 100 (≈ 404 µM) | 100 (≈ 404 µM) | 100 (≈ 404 µM) | 125 (≈ 31 µg/mL) | 125 (≈ 31 µg/mL) | 0.1862 |  | 1620 |  |  | 
9 | CC(C)(C)c1ncc(C(=O)NCc2ccccc2)nc1Cl [Compound 9, N-Benzyl-5-tert-butyl-6-chloropyrazine-2-carboxamide] | 82 | 25 | 25 (≈ 82.3 µM) | 50 (≈ 165 µM) | 100 (≈ 329 µM) | 250 (≈ 75.9 µg/mL) | 500 (≈ 152 µg/mL) | 1.1215 |  | 7.4 |  |  | 
10 | O=C(NCc1ccc(Cl)cc1)c1cnc(Cl)cn1 [Compound 3, 5-Chloro-N-(4-chlorobenzyl)pyrazine-2-carboxamide] | 44 | 12.5 | 100 (≈ 354 µM) | 100 (≈ 354 µM) | 100 (≈ 354 µM) | 125 (≈ 35.3 µg/mL) | 125 (≈ 35.3 µg/mL) | 0.4150 |  | 604 |  |  | 
11 | OC(Cn1cncn1)(Cn1cncn1)c1ccc(F)cc1F [FLU, fluconazole, reference compound] |  |  |  |  |  | 1.95 (≈ 0.597 µg/mL) | 3.91 (≈ 1.2 µg/mL) |  |  |  |  |  | 
12 | COc1ccc(CNC(=O)c2cncc(Cl)n2)cc1 [Compound 8, 6-Chloro-N-(4-methoxybenzyl)pyrazine-2-carboxamide] | 22 | 6.25 | 100 (≈ 360 µM) | 50 (≈ 180 µM) | 100 (≈ 360 µM) | 500 (≈ 139 µg/mL) | 500 (≈ 139 µg/mL) | 0.1838 |  |  |  |  | 
13 | NNC(=O)c1ccncc1 [INH, isoniazid, reference compound] | 11 | 1.56 | 12.5 to 25 (≈ 91.1 to 182 µM) | 12.5 (≈ 91.1 µM) | 12.5 (≈ 91.1 µM) |  |  |  |  |  |  |  | 
14 | CC(C)(C)c1ncc(C(=O)NCc2cccc(C(F)(F)F)c2)nc1Cl [Compound 10, 5-tert-Butyl-6-chloro-N-(3-trifluoromethylbenzyl)pyrazine-2-carboxamide] | 16 | 6.25 | 25 (≈ 67.2 µM) | 25 (≈ 67.2 µM) | 25 (≈ 67.2 µM) | 250 (≈ 92.9 µg/mL) | 250 (≈ 92.9 µg/mL) | 1.3638 |  | 36.3 |  |  | 
15 | O=C(NCc1cccc(C(F)(F)F)c1)c1cnc(Cl)cn1 [Compound 2, 5-Chloro-N-(3-trifluoromethylbenzyl)pyrazine-2-carboxamide] | 79 | 25 | 25 (≈ 79.2 µM) | 100 (≈ 317 µM) | 50 (≈ 158 µM) | 15.6 (≈ 4.93 µg/mL) | 15.6 (≈ 4.93 µg/mL) | 0.4384 |  | 346 |  | 15.62/15.62 µmol/L | decreased intensity of the emission band at 686 nm
16 | NC(=O)c1cnccn1 [PZA, pyrazinamide, reference compound] | 50 to 101 | 6.25 to 12.5 | > 100 | > 100 | > 100 |  |  |  |  |  |  |  | 

Reference: article PMC6268022, “Substituted N-Benzylpyrazine-2-carboxamides: Synthesis and Biological Evaluation ^†” (Molecules, 2012)
